Positions of bridges follow the written chain, without caps; N, C: chain ends. Non-standard residues stand in square brackets, D forms with d. Residues, ends and D or L forms follow the SMILES beside them. Tic = O=C(O)[C@@H]1Cc2ccccc2CN1; dTic = O=C(O)[C@H]1Cc2ccccc2CN1
Test system: X4-tropic HIV-1 NL4-3
Settings: from IC50 against two HIV-1 strains (NL4-3, DTV)
Description: These cells contain the β-galactosidase reporter gene under the control of the HIV-1 promoter. Thus, activation of the β-galactosidase reporter gene allows to measure the efficiency of HIV-1 infection and thus to quantitate the potency of HIV-1 inhibitors (Detheux M. et al., 2000; Journal of Experimental Medicine 192, 1501-1508; Münch et al., 2002; Antimicrobial Agents and Chemotherapy 46, 982-990).
To perform a typical infection assay, P4-CCR5 cells (Charneau et al., 1994; Journal of Molecular Biology 241, 651-662; Charneau et al., Virology. 1994 205, 247-53) were kept in RPMI 1640 medium supplemented with 10 volume % FCS. This cell line coexpresses CD4 and both HIV-1 coreceptors CCR5 and CXCR4 and contains the β-galactosidase gene under the control of the HIV-1 promoter. Virus stocks were generated by the calcium coprecipitation method as described (Detheux et al., J Exp Med. 192:1501-8; 2000), and the p24 antigen levels were quantitated with an HIV p24 ELISA kit obtained through the NIH AIDS Reagent Program. Cells were seeded in flat-bottomed 96-well dishes, cultured overnight, and incubated with the different doses of peptide for 2 h before infection with virus containing 1 ng of p24 antigen in a total volume of […] of medium. After overnight incubation, cells were washed twice and cultivated in fresh culture medium without inhibitory peptide. Three days after infection the cells were lysed, and infectivity was quantitated using the Galacto-Light Plus™ chemiluminescence reporter assay kit (Tropix, Bedford, Mass.) as recommended by the manufacturer. All infections were performed in quintuplicate.

`CC[C@H](C)[C@H](NC(=O)[C@H](C)NC(=O)[C@H](CCC(=O)O)NC(=O)[C@@H](N)CC(C)C)C(=O)N1CCC[C@H]1C(=O)N[C@H]1CSSC[C@@H](C(=O)N[C@@H](Cc2ccccc2)C(=O)N[C@@H](CC(C)C)C(=O)N[C@@H](Cc2ccccc2)C(=O)NCC(=O)N[C@@H](CCCCN)C(=O)N2CCC[C@H]2C(=O)N[C@@H](Cc2ccccc2)C(=O)N[C@H](C(=O)N[C@@H](Cc2ccccc2)C(=O)O)C(C)C)NC(=O)[C@@H]2CCCN2C(=O)[C@@H]2CCCN2C(=O)[C@H]([C@@H](C)CC)NC(=O)[C@H](CO)NC1=O` [VIR-280] (H-LEAIPCSIPPCFLFGKPFVF-OH; disulfide 6-11) was tested, and the “increase in anti-HIV activity in comparison to VIRIP” value was 161 fold.

Same assay, conditions: read-out: IC50 NL4-3; P4-CCR5 cells, HIV-1 NL4-3, peptide 2 h before infection, readout three days after infection

Point of comparison: `CC[C@H](C)[C@H](NC(=O)[C@@H]1CCCN1C(=O)[C@@H](NC(=O)[C@H](CC(=O)O)NC(=O)[C@H](CCC(=O)O)NC(=O)[C@@H](N)CC(C)C)[C@@H](C)CC)C(=O)NCC(=O)N[C@H](C(=O)N1CCC[C@H]1C(=O)N1CCC[C@@H]1C(=O)N[C@@H](CCC(=O)O)C(=O)N[C@H](C(=O)N1Cc2ccccc2C[C@H]1C(=O)N[C@@H](Cc1ccccc1)C(=O)N[C@@H](CC(N)=O)C(=O)N[C@@H](CCCCN)C(=O)N1CCC[C@H]1C(=O)N[C@@H](Cc1ccccc1)C(=O)N[C@H](C(=O)N[C@@H](Cc1ccccc1)C(=O)O)C(C)C)C(C)C)[C@@H](C)CC` [VIR-487, LEDIPIGIPpEV(L-Tic)FNKPFVF] (H-LEDIPIGIP[dP]EV[Tic]FNKPFVF-OH), IC50 256 nM. Against it:
- CC[C@H](C)[C@H](NC(=O)[C@H](C)NC(=O)[C@H](CCC(=O)O)NC(=O)[C@@H](N)CC(C)C)C(=O)N1CCC[C@H]1C(=O)N[C@@H](CCSC)C(=O)NCC(=O)N[C@H](C(=O)N1CCC[C@H]1C(=O)N1CCC[C@@H]1C(=O)N[C@@H](CCC(=O)O)C(=O)N[C@H](C(=O)N[C@@H](Cc1ccccc1)C(=O)N[C@@H](Cc1ccccc1)C(=O)N[C@@H](CC(N)=O)C(=O)N[C@@H](CCCCN)C(=O)N1CCC[C@H]1C(=O)N[C@@H](Cc1ccccc1)C(=O)N[C@H](C(=O)N[C@@H](Cc1ccccc1)C(=O)O)C(C)C)C(C)C)[C@@H](C)CC [VIR-322, LEAIPMGIPpEVFFNKPFVF] (H-LEAIPMGIP[dP]EVFFNKPFVF-OH) — 3.3-fold higher, 836 nM
- CC[C@H](C)[C@H](NC(=O)[C@H](CC(=O)O)NC(=O)[C@H](CCC(=O)O)NC(=O)[C@@H](N)CC(C)C)C(=O)N1CCC[C@H]1C(=O)N[C@@H](CCSC)C(=O)N[C@@H](CO)C(=O)N[C@H](C(=O)N1CCC[C@H]1C(=O)N1CCC[C@@H]1C(=O)N[C@@H](CCC(=O)O)C(=O)N[C@H](C(=O)N1Cc2ccccc2C[C@H]1C(=O)N[C@@H](Cc1ccccc1)C(=O)N[C@@H](CC(N)=O)C(=O)N[C@@H](CCCCN)C(=O)N1CCC[C@H]1C(=O)N[C@@H](Cc1ccccc1)C(=O)N[C@H](C(=O)N[C@@H](Cc1ccccc1)C(=O)O)C(C)C)C(C)C)[C@@H](C)CC [VIR-452, LEDIPMSIPpEV(L-Tic)FNKPFVF] (H-LEDIPMSIP[dP]EV[Tic]FNKPFVF-OH) — within 1.5-fold, 184 nM
- CC[C@H](C)[C@H](NC(=O)[C@H](C)NC(=O)[C@H](CCC(=O)O)NC(=O)[C@@H](N)CC(C)C)C(=O)N1CCC[C@H]1C(=O)N[C@@H](CCSC)C(=O)N[C@@H](CO)C(=O)N[C@@H](Cc1ccccc1)C(=O)N1CCC[C@H]1C(=O)N1CCC[C@@H]1C(=O)N[C@@H](CCC(=O)O)C(=O)N[C@@H](Cc1ccccc1)C(=O)N[C@@H](CC(C)C)C(=O)N[C@@H](Cc1ccccc1)C(=O)NCC(=O)N[C@@H](CCCCN)C(=O)N1CCC[C@H]1C(=O)N[C@@H](Cc1ccccc1)C(=O)N[C@H](C(=O)N[C@@H](Cc1ccccc1)C(=O)O)C(C)C [VIR-400, LEAIPMSFPpEFLFGKPFVF] (H-LEAIPMSFP[dP]EFLFGKPFVF-OH) — 2.3-fold higher, 590 nM
- CC[C@H](C)[C@H](NC(=O)[C@H](C)NC(=O)[C@H](CCC(=O)O)NC(=O)[C@@H](N)CC(C)C)C(=O)N1CCC[C@H]1C(=O)N[C@@H](CCSC)C(=O)NCC(=O)N[C@H](C(=O)N1CCC[C@H]1C(=O)N1CCC[C@@H]1C(=O)N[C@@H](CCC(=O)O)C(=O)N[C@H](C(=O)N[C@@H](Cc1c[nH]c2ccccc12)C(=O)N[C@@H](Cc1ccccc1)C(=O)N[C@@H](CC(N)=O)C(=O)N[C@@H](CCCCN)C(=O)N1CCC[C@H]1C(=O)N[C@@H](Cc1ccccc1)C(=O)N[C@H](C(=O)N[C@@H](Cc1ccccc1)C(=O)O)C(C)C)C(C)C)[C@@H](C)CC [VIR-328, LEAIPMGIPpEVWFNKPFVF] (H-LEAIPMGIP[dP]EVWFNKPFVF-OH) — 2.7-fold higher, 685 nM
- CC[C@H](C)[C@H](NC(=O)[C@@H]1CCCN1C(=O)[C@@H](NC(=O)[C@H](C)NC(=O)[C@H](CCC(=O)O)NC(=O)[C@@H](N)CC(C)C)[C@@H](C)CC)C(=O)N[C@@H](CO)C(=O)N[C@H](C(=O)N1CCC[C@H]1C(=O)N1CCC[C@@H]1C(=O)N[C@@H](CCC(=O)O)C(=O)N[C@H](C(=O)N1Cc2ccccc2C[C@@H]1C(=O)N[C@@H](Cc1ccccc1)C(=O)N[C@@H](CC(N)=O)C(=O)N[C@@H](CCCCN)C(=O)N1CCC[C@H]1C(=O)N[C@@H](Cc1ccccc1)C(=O)N[C@H](C(=O)N[C@@H](Cc1ccccc1)C(=O)O)C(C)C)C(C)C)[C@@H](C)CC [VIR-445, LEAIPISIPpEV(D-Tic)FNKPFVF] (H-LEAIPISIP[dP]EV[dTic]FNKPFVF-OH) — within 1.5-fold, 224 nM
- CC[C@H](C)[C@H](NC(=O)[C@H](C)NC(=O)[C@H](CCC(=O)O)NC(=O)[C@@H](N)CC(C)C)C(=O)N1CCC[C@H]1C(=O)N[C@@H](CCSC)C(=O)N[C@@H](CO)C(=O)N[C@H](C(=O)N1CCC[C@H]1C(=O)N1CCC[C@@H]1C(=O)N[C@@H](CCC(=O)O)C(=O)N[C@@H](Cc1ccccc1)C(=O)N[C@@H](CC(C)C)C(=O)N[C@@H](Cc1ccccc1)C(=O)NCC(=O)N[C@@H](CCCCN)C(=O)N1CCC[C@H]1C(=O)NCC(=O)N[C@@H](Cc1ccccc1)C(=O)N[C@H](C(=O)N[C@@H](Cc1ccccc1)C(=O)O)C(C)C)[C@@H](C)CC [VIR-377, LEAIPMSIPpEFLFGKPGFVF] (H-LEAIPMSIP[dP]EFLFGKPGFVF-OH) — 1.9-fold higher, 487 nM
- LEAIPMKIPPEFLFGKPFVF [VIR-590] — within 1.5-fold, 343 nM
- H-LEAIPISIPPELAFAKPFVF-OH [VIR-286] — 2.2-fold higher, 559 nM
- CC[C@H](C)[C@H](NC(=O)[C@H](C)NC(=O)[C@H](CCC(=O)O)NC(=O)[C@@H](N)CC(C)C)C(=O)N1CCC[C@H]1C(=O)N[C@@H](CCSC)C(=O)N[C@@H](CO)C(=O)N[C@H](C(=O)N1CCC[C@H]1C(=O)N1CCC[C@@H]1C(=O)N[C@@H](CCC(=O)O)C(=O)N[C@@H](Cc1ccccc1)C(=O)N[C@@H](CC(C)C)C(=O)N[C@@H](Cc1ccccc1)C(=O)NCC(=O)N[C@@H](CCCCN)C(=O)N1CCC[C@H]1C(=O)N[C@@H](CCC(=O)O)C(=O)N[C@@H](Cc1ccccc1)C(=O)N[C@H](C(=O)N[C@@H](Cc1ccccc1)C(=O)O)C(C)C)[C@@H](C)CC [VIR-384, LEAIPMSIPpEFLFGKPEFVF] (H-LEAIPMSIP[dP]EFLFGKPEFVF-OH) — 2.4-fold higher, 622 nM
- CC[C@H](C)[C@H](NC(=O)[C@H](C)NC(=O)[C@H](CCC(=O)O)NC(=O)[C@@H](N)CC(C)C)C(=O)N1CCC[C@H]1C(=O)N[C@H]1CSSC[C@@H](C(=O)N[C@@H](CC(C)C)C(=O)N[C@@H](Cc2ccccc2)C(=O)NCC(=O)N[C@@H](CCCCN)C(=O)N2CCC[C@H]2C(=O)N[C@@H](Cc2ccccc2)C(=O)N[C@H](C(=O)N[C@@H](Cc2ccccc2)C(=O)O)C(C)C)NC(=O)[C@H](CCC(=O)O)NC(=O)[C@@H]2CCCN2C(=O)[C@@H]2CCCN2C(=O)[C@H]([C@@H](C)CC)NC(=O)[C@H](CO)NC1=O [VIR-570] (H-LEAIPCSIPPECLFGKPFVF-OH; disulfide 6-12) — within 1.5-fold, 231 nM
- CC[C@H](C)[C@H](NC(=O)[C@@H]1CCCN1C(=O)[C@@H](NC(=O)[C@H](C)NC(=O)[C@H](CCC(=O)O)NC(=O)[C@@H](N)CC(C)C)[C@@H](C)CC)C(=O)N[C@@H](CO)C(=O)N[C@H](C(=O)N1CCC[C@H]1C(=O)N1CCC[C@@H]1C(=O)N[C@@H](CCC(=O)O)C(=O)N[C@H](C(=O)N[C@@H](Cc1ccccc1)C(=O)N[C@@H](Cc1ccccc1)C(=O)NCC(=O)N[C@@H](CCCCN)C(=O)N1CCC[C@H]1C(=O)N[C@@H](Cc1ccccc1)C(=O)N[C@H](C(=O)N[C@@H](Cc1ccccc1)C(=O)O)C(C)C)C(C)C)[C@@H](C)CC [VIR-290, LEAIPISIPpEVFFGKPFVF] (H-LEAIPISIP[dP]EVFFGKPFVF-OH) — 2.2-fold higher, 562 nM
- CC[C@H](C)[C@H](NC(=O)[C@@H]1CCCN1C(=O)[C@@H](NC(=O)[C@H](CC(=O)O)NC(=O)[C@H](CCC(=O)O)NC(=O)[C@@H](N)CC(C)C)[C@@H](C)CC)C(=O)NCC(=O)N[C@H](C(=O)N1CCC[C@H]1C(=O)N1CCC[C@@H]1C(=O)N[C@@H](CCC(=O)O)C(=O)N[C@H](C(=O)N[C@@H](C)C(=O)N[C@@H](Cc1ccccc1)C(=O)N[C@@H](CC(N)=O)C(=O)N[C@@H](CCCCN)C(=O)N1Cc2ccccc2C[C@H]1C(=O)N[C@@H](Cc1ccccc1)C(=O)N[C@H](C(=O)N[C@@H](Cc1ccccc1)C(=O)O)C(C)C)C(C)C)[C@@H](C)CC [VIR-488, LEDIPIGIPpEVAFNK(L-Tic)FVF] (H-LEDIPIGIP[dP]EVAFNK[Tic]FVF-OH) — 1.6-fold higher, 415 nM

— patent US7655629B2, “Peptides and their use for the treatment of HIV infections” (priority 2002, dated 2010)
